The source of these data is US20150275306A1, “METHODS AND MEANS FOR PREDICTING RESISTANCE TO ANTI-CANCER TREATMENT” (Stichting Het Nederlands Kanker Instituut Antoni van …, priority 2012, published 2015).

Broadly, the IC50 is the point on the concentration scale where inhibition reaches its midpoint.

Assay [1] relates to H3122 cells. The assay is described as follows: Long-term cell proliferation (colony formation) assay in H3122. In kind it is cell-based. As to conditions: for effect of recombinant TGFbeta treatment on drug response, H3122: TGFbeta-dosage dependent, crizotinib, cisplatin 2 μM; for effect of MED12 knockdown on response to ALK inhibitors, H3122: shMED12 #1-3, 300 nM crizotinib or 2.5 nM NVP-TAE684; for effect of MED12 knockdown on response to chemotherapy drugs, H3122: shMED12 #4 and #5, 2 μM cisplatin or 2.5 μM 5-FU, 18 days. The method, then:
(§1) H3122, PC9, H3255, SK-CO-1 and SW1417 cells were cultured in RPMI with 8% heat inactivated fetal bovine serum, penicillin and streptomycin at 5% CO2. HEK 293T, Phoenix and A375, SK-MEL-28 and Huh-7 cells were cultured in DMEM with 8% heat-inactivated fetal bovine serum, penicillin and streptomycin at 5% CO2. Subclones of each cell line expressing the murine ecotropic receptor were generated and used for all experiments shown. Phoenix cells were used as producers of retroviral supernatants as described at www.stanford.edu/group/nolan/retroviral_systems/phx.html. HEK 293T cells were used as producers of lentiviral supernatants as described at www.broadinstitute.org/rnai/public/resources/protocols. The calcium phosphate method was used for the transfection of Phoenix and 293T cells. Infected cells were selected for successful retroviral integration using 2 μg/ml of puromycin.
(§2) For long-term cell proliferation assays, cells were seeded into 6-well plates (2-5×10E4 cells/well) and cultured both in the absence and presence of drugs as indicated. More details are described (Huang et al., 2009. Cancer Cell 15: 328-340). All knockdown and overexpression experiments were done by retroviral or lentiviral infection. All relevant assays were performed independently at least three times.

Assay [2] concerns H3122 cells. As to conditions: parental H3122, EML4-ALK translocation; McDermott et al., 2008; cited from earlier work.
A further assay deals with PC9 cells. As to the kind of experiment: Long-term cell proliferation (colony formation) assay in PC9. In kind it is cell-based. To be noted: for effect of recombinant TGFbeta treatment on drug response, PC9: TGFbeta-dosage dependent, gefitinib 50 nM, cisplatin 0.7 μM. The method, then:
(§3) H3122, PC9, H3255, SK-CO-1 and SW1417 cells were cultured in RPMI with 8% heat inactivated fetal bovine serum, penicillin and streptomycin at 5% CO2. […] Subclones of each cell line expressing the murine ecotropic receptor were generated and used for all experiments shown. Phoenix cells were used as producers of retroviral supernatants as described at www.stanford.edu/group/nolan/retroviral_systems/phx.html. […] Infected cells were selected for successful retroviral integration using 2 μg/ml of puromycin.
(§4) For long-term cell proliferation assays, cells were seeded into 6-well plates (2-5×10E4 cells/well) and cultured both in the absence and presence of drugs as indicated. […] All knockdown and overexpression experiments were done by retroviral or lentiviral infection. All relevant assays were performed independently at least three times.

In another assay the test system is H3255 cells. In kind it is cell-based. The method, then:
as §3, §4

Assay [3] relates to MEK/ERK activation in PC9 cells. The assay is described as follows: Western blotting of MEK/ERK activation in PC9. In kind it is cell-based. From the text:
(§5) Antibody against MED12 (A300-774A) and MED13 (A301-278A) was from Bethyl Laboratories; antibodies against Vimentin (RV202) and N-cadherin (ab18203) were from Abcam; antibody against p-SMAD2 (Ser465/467, #3101), SMAD2 (L16D3, #3103), pMEK1/2 (S217/221, #9121) and MEK1/2 (L38C12, #4694) were from Cell Signaling; anti-Flag M2 (F1804) was from Sigma; antibodies against HSP90 (H-114), p-ERK (E-4), ERK1 (C-16), ERK2 (C-14), CDK8 (D-9), Lamin A/C (636), SP1 (PEP2), alpha-TUBULIN (H-183), TGFbeta R2 (C-16), CDK8 (D9) and normal rabbit IgG control were from Santa Cruz Biotechnology; A mixture of ERK1 and ERK2 antibodies was used for detection of total ERK; 12CA5 hybridoma supernatant was also used to detect HA tagged-TGFbeta R2.
(Immunoblotting shows a protein as a band on a membrane.)

Assay [4] deals with MEK/ERK activation in H3122 cells. The assay is described as follows: Western blotting of MEK/ERK activation in H3122. In kind it is cell-based. To be noted: data not shown.
Description: as §5

Assay [5] has as its system Vimentin, N-cadherin and p-ERK in Huh7 cells. The assay is described as follows: Western blotting of mesenchymal markers and p-ERK in Huh7. To be noted: 50 picoM of TGFbeta for 6 days. In kind it is cell-based.
Description: as §5

In assay [6] the test system is A375 melanoma cells (BRAFV600E). The assay is described as follows: Long-term cell proliferation (colony formation) assay in A375. As to conditions: without targeted cancer drugs. In kind it is cell-based. As for the experimental part: as §3, §4
Assay [7] has as its system MEK/ERK activation in H3255 cells. As to the kind of experiment: Western blotting of MEK/ERK activation in H3255. In kind it is cell-based.
Description: as §5

In the next assay the test system is Huh-7 HCC cells. The assay is described as follows: Long-term cell proliferation (colony formation) assay in Huh-7. In kind it is cell-based. As for the experimental part: as §1, §2
Assay [8] deals with SK-CO-1 colorectal cancer cells (KRASV12). As to the kind of experiment: Long-term cell proliferation (colony formation) assay in SK-CO-1. In kind it is cell-based. The method, then: as §1, §2
The target in another assay is TGFbeta receptor Type II (Homo sapiens, UniProt P37173). To be noted: cited from earlier work.
Chain of TGFbeta receptor Type II (P37173 23-567, species assumed): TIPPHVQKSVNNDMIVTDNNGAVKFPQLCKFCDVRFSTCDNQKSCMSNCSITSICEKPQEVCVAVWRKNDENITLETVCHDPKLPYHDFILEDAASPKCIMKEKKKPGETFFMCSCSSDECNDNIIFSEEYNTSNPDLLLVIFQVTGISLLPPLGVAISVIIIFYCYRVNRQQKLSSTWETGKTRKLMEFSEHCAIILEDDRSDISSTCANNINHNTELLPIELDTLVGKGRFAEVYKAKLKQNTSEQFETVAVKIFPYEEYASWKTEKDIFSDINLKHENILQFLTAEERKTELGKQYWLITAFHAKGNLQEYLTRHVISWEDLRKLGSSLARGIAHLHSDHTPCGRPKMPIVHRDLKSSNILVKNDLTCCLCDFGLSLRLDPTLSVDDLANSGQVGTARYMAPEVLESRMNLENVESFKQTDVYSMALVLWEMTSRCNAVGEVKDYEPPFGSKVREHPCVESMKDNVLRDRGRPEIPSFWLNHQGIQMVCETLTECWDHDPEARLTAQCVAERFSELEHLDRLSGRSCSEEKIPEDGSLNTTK

Turning to `C[C@@H](Oc1cc(-c2cnn(C3CCNCC3)c2)cnc1N)c1c(Cl)ccc(F)c1Cl` [crizotinib], the “effect of recombinant TGFbeta treatment on drug response, H3122” value in the assay on H3122 cells [1] is “leads to resistance”. The “proliferation of control H3122 cells” value in the assay with H3122 cells [1] (pRS control cells, 300 nM crizotinib alone, 28 days) was “potently inhibited the proliferation”. Moreover, in the assay with H3122 cells [1] (28 days), the “effect of MED12 knockdown on response to ALK inhibitors, H3122” value is “conferred resistance”. Besides, the “sensitivity of H3122 cells to selective ALK inhibitors” value in the assay on H3122 cells [2] was “exquisitely sensitive”.

As to `O=c1[nH]cc(F)c(=O)[nH]1` [5-FU, 5-Fluorouracil], the “effect of MED12 knockdown on response to chemotherapy drugs, H3122” value in the assay with H3122 cells [1] is recorded as “confers resistance”.

In the case of `N.N.[Cl][Pt][Cl]` [cisplatin], in the assay on PC9 cells, the “effect of recombinant TGFbeta treatment on drug response, PC9” value is given as “leads to resistance”. The “effect of MED12 knockdown on response to cisplatin, PC9” value in the assay on PC9 cells (shMED12 #4 and #5, 0.37 or 1.1 μM cisplatin, 21 days) is on record as “confers resistance”. Further, in the assay on H3122 cells [1], the “effect of recombinant TGFbeta treatment on drug response, H3122” value is on record as “leads to resistance” and the “effect of MED12 knockdown on response to chemotherapy drugs, H3122” value was “confers resistance”.

On to `COc1cc2ncnc(Nc3ccc(F)c(Cl)c3)c2cc1OCCCN1CCOCC1` [gefitinib], for which the “effect of recombinant TGFbeta treatment on drug response, PC9” value with PC9 cells is listed as “leads to resistance”.

Take `C#Cc1cccc(Nc2ncnc3cc(OCCOC)c(OCCOC)cc23)c1` [erlotinib]: the “effect of MED12 knockdown on response to EGFR inhibitors, H3255” value with H3255 cells is reported as “conferred resistance”. Also, the “effect of MED12 knockdown on response to EGFR inhibitors, PC9” value in the assay with PC9 cells is recorded as “conferred resistance”.

On to “recombinant TGFbeta: Recombinant hTGFbeta 1 (240-B/CF) purchased from R&D systems”, for which the “MEK/ERK activation in PC9 cells” value in assay [3] is on record as “caused MEK/ERK activation”. In addition, the “MEK/ERK activation in H3122 cells” value in assay [4] is “caused MEK/ERK activation”. Besides, the “levels of Vimentin, N-cadherin and p-ERK in Huh7 cells” value in assay [5] is “increased levels of Vimentin, N-cadherin and p-ERK”. Further, in assay [6], the “proliferation of A375 cells, TGFbeta alone” value is listed as “growth inhibition”. Besides, in assay [7], the “MEK/ERK activation in H3255 cells” value is listed as “caused MEK/ERK activation”. Besides, in the assay on Huh-7 HCC cells (without targeted cancer drugs, data not shown), the “proliferation of Huh-7 cells, TGFbeta alone” value was “growth inhibition”.

For the compound `COc1cc(N2CCC(N3CCN(C)CC3)CC2)ccc1Nc1ncc(Cl)c(Nc2ccccc2S(=O)(=O)C(C)C)n1` [NVP-TAE684], in the assay on H3122 cells [1] (28 days), the “effect of MED12 knockdown on response to ALK inhibitors, H3122” value is “conferred resistance”. Further, the “sensitivity of H3122 cells to selective ALK inhibitors” value with H3122 cells [2] is given as “exquisitely sensitive”.

As for `Cn1cnc2c(F)c(Nc3ccc(Br)cc3Cl)c(C(=O)NOCCO)cc21` [AZD6244, seluteminib], the “effect of MED12 knockdown on response to MEK inhibitor, SK-CO-1” value in assay [8] (0.5 μM AZD6244, 28 days) is recorded as “conferred resistance”. Further, in assay [8] (TGFbeta-dosage dependent, AZD6244 0.5 μM), the “effect of recombinant TGFbeta treatment on drug response, SK-CO-1” value was “leads to resistance”. In addition, the “sensitivity of SK-CO-1 cells” value in assay [8] (parental cells) is recorded as “highly sensitive”.

`Cc1cccc(-c2nn3c(c2-c2ccnc4ccc(C(N)=O)cc24)CCC3)n1` [LY2157299, 4-(2-(6-methylpyridin-2-yl)-5,6-dihydro-4H-pyrrolo[1,2-b]pyrazol-3-yl)quinoline-6-carboxamide]: in the assay with H3122 cells [1] (1 μM LY2157299 alone, 14 days), the “proliferation of control and MED12KD H3122 cells, monotherapy” value is “little effect”. In addition, the IC50 at TGFbeta receptor Type II is 2 nM.

As to `CNC(=O)c1cc(Oc2ccc(NC(=O)Nc3ccc(Cl)c(C(F)(F)F)c3)cc2)ccn1` [sorafenib], in the assay on Huh-7 HCC cells (2 μM sorafenib, 21 days), the “effect of MED12 knockdown on response to sorafenib, Huh-7” value is reported as “became resistant”.
